Results reported in paper PMC10146491, “Meroterpenoids from Gongolaria abies-marina against Kinetoplastids: In Vitro Activity and Programmed Cell Death Study” (Pharmaceuticals, 2023).

Key:
[1] = system: promastigotes of L. amazonensis; test: Leishmanicidal activity assay (Alamar Blue), promastigotes; type: cell-based, Leishmania amazonensis; conditions: for Selectivity index (CC50/IC50), L. amazonensis: CC50 in murine macrophages; for IC50: Leishmania amazonensis, 72 h, Alamar Blue, read-out: Antikinetoplastid activity IC50, L. amazonensis
Description: (§1) To carry out the experiments, promastigotes of Leishmania amazonensis (MHOM/BR/77/LTB0016) and L. donovani (MHOM/IN/90/GE1F8R) and epimastigotes of Trypanosoma cruzi (Y strain) were employed. Leishmania species were cultured in Schneider’s medium (Sigma-Aldrich, Madrid, Spain), supplemented with 10% fetal bovine serum (VWR, Biowest, Nuaillé, France) and incubated at 26 °C. RPMI 1640 medium (Gibco, Thermo Fisher, Madrid, Spain) with or without phenol red was also used to culture the parasites at the same temperature. Epimastigotes of T. cruzi were cultured in liver infusion tryptose (LIT) medium supplemented with 10% fetal bovine serum at 26 °C. A cytotoxicity assay was performed using a murine macrophage cell line J774A.1 (ATCC TIB-67), which was maintained in Dulbecco’s modified Eagle’s medium (Gibco, Thermo Fisher, Madrid, Spain) supplemented with 10% of fetal bovine serum at 37 °C in a 5% CO2 atmosphere.
(§2) With the objective of determining the antiparasitic activity of the compounds isolated from G. abies-marina, leishmanicidal activity assays were performed against promastigote stages of L. amazonensis and L. donovani, as well as a trypanocidal activity assay performed against epimastigote stages of T. cruzi. In both parasites, a colorimetric assay was used based on the Alamar Blue reagent (Life Technologies, Madrid, Spain) as previously described by Bethencourt-Estrella et al. (2021).
(§3) In a sterile 96 well-plate, serial dilutions of the extracts, fractions or compounds isolated from G. abies-marina were performed in RPMI 1640 medium without phenol red (in the case of Leishmania spp.) or in LIT (in the case of T. cruzi) with a final volume of 100 µL. Parasites were added to wells to reach a concentration of 5 × 10^5 (Leishmania spp.) or 2.5 × 10^5 (T. cruzi) until a final volume of 200 µL/well. Next, 10% of Alamar Blue® was placed into each well and the plate was incubated for 72 h at 26 °C. Finally, the fluorescence of each well was measured using an EnSpire® Multimode Plate Reader (Perkin Elmer, Madrid, Spain) (544 nm excitation, 590 nm emission) and the concentration that inhibits 50% of the parasite population (IC50) was calculated using a non-linear regression analysis with 95% confidence limits. Miltefosine and benznidazol were used as reference drugs. To analyze the data and calculate the IC50, SigmaPlot 12.0 statistical analysis software (Systat Software Inc, Palo Alto, CA, USA) was used.
(§4) The 50% inhibitory concentration (IC50) and 50% cytotoxic concentration (CC50) values were obtained using Sigma Plot 12.0 statistical analysis software (Systat Software) and calculated using a non-linear regression analysis with 95% confidence limits. Leishmanicidal and trypanocidal activity assays, as well as cytotoxicity assays, were performed three times on different days, and the results were expressed as means ± standard deviations. The analysis of variance was determined using a one-way ANOVA using the GraphPad.PRISM® 9.0 software program (GraphPad Software, San Diego, CA, USA). Differences at p < 0.05 were considered statistically significant.

[2] = system: promastigotes of L. donovani; test: as above; type: cell-based, Leishmania donovani; conditions: for Selectivity index (CC50/IC50), L. donovani: CC50 in murine macrophages; for IC50: Leishmania donovani, 72 h, Alamar Blue, read-out: Antikinetoplastid activity IC50, L. donovani
Description: as §1, §2, §3, §4

[3] = system: epimastigotes of Trypanosoma cruzi; test: Trypanocidal activity assay (Alamar Blue), epimastigotes; type: cell-based; conditions: for Selectivity index (CC50/IC50), T. cruzi: CC50 in murine macrophages; for IC50: Trypanosoma cruzi, 72 h, Alamar Blue, read-out: Antikinetoplastid activity IC50, T. cruzi
Description: as §1, §2, §3, §4

[4] = Cytotoxicity assay (Alamar Blue); type: cell-based; conditions: mouse, J774A.1 murine macrophage cell line, J774A.1, 24 h, read-out: Cytotoxicity CC50, murine macrophages
Description: as §1
In a sterile 96-well plate, murine macrophages of the cell line J774A.1 were placed to reach an amount of 10^5 cells per well using RPMI 1640 medium without phenol red. After murine macrophage attachment, 50 µL serial dilutions of the isolated compounds were added in each well until reaching a final volume of 100 µL. Next, 10% of Alamar Blue® was placed into each well and the plate was incubated for 24 h at 37 °C with a 5% CO2 atmosphere. Finally, the plates were analyzed using an EnSpire® Multimode Plate Reader (PerkinElmer, Madrid, Spain), as described in the previous section, and the 50% cytotoxic concentration (CC50) values were calculated.
as §4

[5] = system: intracellular amastigotes of L. amazonensis; test: In vitro effect against amastigote stage in infected macrophages; type: cell-based, Leishmania amazonensis; conditions: for Selectivity index (CC50/IC50), amastigotes of L. amazonensis: CC50 in murine macrophages; for IC50: Leishmania amazonensis, J774.A1, intracellular amastigotes in J774A.1 macrophages, 24 h treatment
Description: To determine the in vitro effect against the amastigote stage of L. amazonensis, murine macrophages were infected. In a sterile 96 well-plate, macrophages of the J774A.1 cell line were placed in RPMI 1640 to reach 10^5 macrophages per well. This plate was incubated at 37 °C in a 5% CO2 atmosphere. After one hour of incubation, 100 µL of stationary-phase promastigotes of 7-day-old culture was added in a 10:1 ratio (10^6 parasites per well) and the plates were re-incubated at 37 °C for 24 h to achieve maximum infection. Then, the wells were washed with fresh medium to remove non-phagocytosed promastigotes. The infected macrophages were treated with the compounds isolated for 24 h. Then, the medium was removed carefully to be replaced by 30 μL of 0.05% SDS and the plate was shaken for 30 s. After broke macrophages, 170 μL of Schneider’s medium was added to each well to give a final volume of 200 μL and 20 μL of Alamar Blue® was added to the plate being incubated at 26 °C for 72 h, as described by López-Arencibia et al. (2017). After 72 h of incubation, the plates were analyzed using the same protocol for the promastigote test.

[6] = system: L. amazonensis promastigotes; test: Transmission electron microscopy, ultrastructural effects; type: cell-based, Leishmania amazonensis; conditions: IC90, 24 h
Description: (§5) The analysis of the ultrastructural and morphological damage caused by the compounds in the parasites was performed in collaboration with the Facultad de Estudios Superiores Iztacala (FESI), Medicina, UNAM (Mexico). These assays were performed after incubation of the promastigotes of L. amazonensis and epimastigotes of T. cruzi at the IC90 levels of the pure compounds over 24 h. TEM images were obtained using the conventional microscopy technique as previously described by Castelan-Ramirez et al. in a JEOL JEM-1011 transmission electron microscope (JEOL Ltd., Tokyo, Japan).

T. cruzi epimastigotes [7] = test: as above; type: cell-based, Trypanosoma cruzi; conditions: IC90, 24 h
Description: as §5

[8] = system: L. amazonensis promastigotes; test: ATP level analysis (Cell Titer-Glo); type: cell-based, Leishmania amazonensis; conditions: IC90 of compound, 24 h
Description: To study the mechanism of cell death induced in parasites by compounds isolated from Gongolaria abies-marina, a common step was carried out to perform the following five experiments. The promastigotes of Leishmania spp. and epimastigotes of T. cruzi were incubated at the IC90 levels of the compounds (previously calculated) for 24 h at 26 °C. After incubation, the parasites were centrifuged at 3000 rpm for 10 min at 4 °C. The pellets were resuspended following the manufacturer’s instructions for each kit. After the incubation of promastigotes and epimastigotes of the parasites with the IC90 of the compounds, the changes in ATP levels were measured using a Cell Titer-Glo® Luminescent Cell Viability Assay (Promega, WI, USA). The assay was carried out in a white 96-well plate following the manufacturer’s instructions, as previously described by Cartuche et al. (2020). The luminescence was measured using an EnSpire® Multimode Plate Reader (PerkinElmer, Madrid, Spain).

T. cruzi epimastigotes [9] = test: Mitochondrial membrane potential (JC-1 assay); type: cell-based, Trypanosoma cruzi; conditions: IC90, 24 h
Description: To study the mechanism of cell death induced in parasites by compounds isolated from Gongolaria abies-marina, a common step was carried out to perform the following five experiments. The promastigotes of Leishmania spp. and epimastigotes of T. cruzi were incubated at the IC90 levels of the compounds (previously calculated) for 24 h at 26 °C. After incubation, the parasites were centrifuged at 3000 rpm for 10 min at 4 °C. The pellets were resuspended following the manufacturer’s instructions for each kit. A JC-1 Mitochondrial Membrane Potential Assay Kit® (Cayman Chemical, Ann Arbor, MI, USA) was used to analyze variations in the mitochondrial membrane potential of the parasites after incubation at the IC90 levels of the compounds. After centrifugation, the parasites were resuspended in the same buffer and transferred to a black 96-well plate. JC-1 was added following the manufacturer’s instructions as also described by López-Arencibia et al. (2020). Green and red fluorescence was measured using an EnSpire® Multimode Plate Reader (PerkinElmer, Madrid, Spain).

[10] = listed as 6Z-1′-methoxyamentadione
[11] = listed as 6Z-1′-methoxyamentadione (3)

COc1c(C)cc(O)cc1C/C=C(\C)CC(=O)/C=C(\C)CCC[C@@H](C)C(=O)/C=C/C(C)(C)O [1′-Methoxyamentadione (4), 1′-methoxyamentadione]
Selectivity index (CC50/IC50), L. amazonensis [1]: 5.41
IC50 [1]: ~4.88 µM
Selectivity index (CC50/IC50), L. donovani [2]: 0.21
IC50 [2]: 126.5 ± 1.15 µM
Selectivity index (CC50/IC50), T. cruzi [3]: 5.36
IC50 [3]: 4.93 ± 0.55 µM
CC50 at 24 h [4]: 26.4 ± 2.27 µM
Selectivity index (CC50/IC50), amastigotes of L. amazonensis [5]: 0.96
IC50 [5]: 27.6 ± 1.68 µM
Ultrastructural and morphological alterations (TEM) ([6]; listed as 1′-methoxyamentadione): mitochondrial expansion (M), chromatin condensation in the nucleus (*), intense vacuolization (V), the formation of some autophagy vacuoles
Ultrastructural and morphological alterations (TEM) ([6]; listed as 1′-methoxyamentadione (4)): alteration of the flagellar pocket
Ultrastructural and morphological alterations (TEM) ([6]; listed as 4): showed two nuclei
Ultrastructural and morphological alterations (TEM) (T. cruzi epimastigotes [7]): morphological mitochondrial (M) and kinetoplast (K) alterations, chromatin condensation in the nucleus (*), intense vacuolization (V) and the formation of some autophagy vacuoles

COc1c(C)cc(O)cc1C/C=C(\C)CC(=O)/C=C(/C)CCC[C@@H](C)C(=O)/C=C/C(C)(C)O [6Z-1′-Methoxyamentadione (3), 6Z-1′-methoxyamentadione]
Selectivity index (CC50/IC50), L. amazonensis [1]: 5.49
IC50 [1]: ~4.88 µM
Selectivity index (CC50/IC50), L. donovani [2]: 0.27
IC50 [2]: 97.9 ± 5.32 µM
Selectivity index (CC50/IC50), T. cruzi [3]: 8.19
IC50 [3]: 3.26 ± 0.11 µM
CC50 at 24 h [4]: 26.8 ± 4.06 µM
Selectivity index (CC50/IC50), amastigotes of L. amazonensis [5]: 1.66
IC50 [5]: 16.2 ± 2.61 µM
ATP levels relative to negative control [8]: greatest effect
Ultrastructural and morphological alterations (TEM) [6, 10]: mitochondrial expansion (M), chromatin condensation in the nucleus (*), intense vacuolization (V), the formation of some autophagy vacuoles
Ultrastructural and morphological alterations (TEM) [6, 11]: alteration of the flagellar pocket
Ultrastructural and morphological alterations (TEM) (T. cruzi epimastigotes [7]; [10]): morphological mitochondrial (M) and kinetoplast (K) alterations, chromatin condensation in the nucleus (*), intense vacuolization (V) and the formation of some autophagy vacuoles
Ultrastructural and morphological alterations (TEM) (T. cruzi epimastigotes [7]; [11]): Morphological alterations of the mitochondria and kinetoplast

O=C(Cn1ccnc1[N+](=O)[O-])NCc1ccccc1 [Benznidazole, benznidazole, reference compound]
Selectivity index (CC50/IC50), T. cruzi [3]: 57.51
IC50 [3]: 6.95 ± 0.5 µM

COc1c(C)cc(O)cc1C/C=C(\C)CC(=O)C/C(C)=C/CC[C@@H](C)C(=O)/C=C/C(C)(C)O [Gongolarone B (2), gongolarone B]
Selectivity index (CC50/IC50), L. amazonensis [1]: 3.79
IC50 [1]: 6.45 ± 0.44 µM
Activity against L. donovani (in words) [2]: lost its activity
Selectivity index (CC50/IC50), T. cruzi [3]: 8.36
IC50 [3]: 2.92 ± 0.25 µM
CC50 at 24 h [4]: 24.4 ± 3.98 µM
Selectivity index (CC50/IC50), amastigotes of L. amazonensis [5]: 1.50
IC50 [5]: 16.2 ± 1.9 µM
ATP levels relative to negative control [8]: decreased
Mitochondrial membrane potential changes (JC-1) (T. cruzi epimastigotes [9]): greatest decrease
Ultrastructural and morphological alterations (TEM) [6]: mitochondrial expansion (M), chromatin condensation in the nucleus (*), intense vacuolization (V), the formation of some autophagy vacuoles
Ultrastructural and morphological alterations (TEM) (T. cruzi epimastigotes [7]; listed as gongolarone B): morphological mitochondrial (M) and kinetoplast (K) alterations, chromatin condensation in the nucleus (*), intense vacuolization (V) and the formation of some autophagy vacuoles
Ultrastructural and morphological alterations (TEM) (T. cruzi epimastigotes [7]; listed as gongolarone B (2)): Morphological alterations of the mitochondria and kinetoplast

CCCCCCCCCCCCCCCCOP(=O)([O-])OCC[N+](C)(C)C [Miltefosine, miltefosine, reference compound]
Selectivity index (CC50/IC50), L. amazonensis [1]: 11.10
IC50 [1]: 6.48 ± 0.1 µM
Selectivity index (CC50/IC50), L. donovani [2]: 21.80
IC50 [2]: 3.31 ± 0.11 µM
CC50 at 24 h [4]: 72.2 ± 1.25 µM
Selectivity index (CC50/IC50), amastigotes of L. amazonensis [5]: 23.16
IC50 [5]: 3.12 ± 0.12 µM
